The structures appear in SMILES notation. Values joined by “and” are separate entries in the source; they are usually repeats but may differ in a detail not shown here. Equal values may be shown once. Inconclusive results and toxic doses are left out.

The test system of this test is P388 leukemia ip, CD2F1 mice, survival T/C. The test is described as follows: NCI In Vivo Anticancer Drug Screen. Data for tumor model P388 Leukemia (intraperitoneal) in CD2F1 (CDF1) mice. The following applies: endpoint: median survival time, higher = longer survival. The procedure, abridged: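 Mice carrying the transplanted tumor received test compound or vehicle. Survival was recorded in each group, and the value is the treated-group measurement divided by that of the vehicle-treated control group.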

Consider `COc1cccc2c1C(=N)c1c(O)c3c(c(O)c1C2=O)C[C@@](O)(C(C)=O)C[C@@H]3OC1CC(N)C(O)C(C)O1` (stereo partly drawn), for which the T/C (dose: 0.5 mg/kg/injection, schedule: Q01DX009 (ip), vehicle: water) is 153 % of control; the T/C (dose: 0.75 mg/kg/injection, schedule: Q04DX003 (ip), vehicle: water) was 112 % of control; the T/C (dose: 1.0 mg/kg/injection, schedule: Q01DX009 (ip), vehicle: saline) is 158 % of control; the T/C (dose: 1.0 mg/kg/injection, schedule: Q01DX009 (ip), vehicle: water) is 153 % of control and 175 % of control; the T/C (dose: 1.5 mg/kg/injection, schedule: Q04DX003 (ip), vehicle: water) is 118 % of control; the T/C (dose: 2.0 mg/kg/injection, schedule: Q01DX009 (ip), vehicle: saline) was 153 % of control. The T/C by setting is: (dose: 2.0 mg/kg/injection, schedule: Q01DX009 (ip), vehicle: water) 155 % of control and 186 % of control; (dose: 3.0 mg/kg/injection, schedule: Q04DX003 (ip), vehicle: water) 124 % of control; (dose: 3.24 mg/kg/injection, schedule: Q04DX003 (ip), vehicle: water) 150 % of control; (dose: 4.0 mg/kg/injection, schedule: Q01DX009 (ip), vehicle: water) 150 % of control and 157 % of control; (dose: 5.4 mg/kg/injection, schedule: Q04DX003 (ip), vehicle: water) 161 % of control; (dose: 6.0 mg/kg/injection, schedule: Q04DX003 (ip), vehicle: water) 123 % of control and 124 % of control. Besides, the T/C (dose: 8.0 mg/kg/injection, schedule: Q01DX009 (ip), vehicle: saline) was 91 % of control; the T/C (dose: 8.0 mg/kg/injection, schedule: Q01DX009 (ip), vehicle: water) is 88 % of control and 94 % of control; the T/C (dose: 9.0 mg/kg/injection, schedule: Q04DX003 (ip), vehicle: water) was 157 % of control; the T/C (dose: 12.0 mg/kg/injection, schedule: Q04DX003 (ip), vehicle: water) is 102 % of control; the T/C (dose: 15.0 mg/kg/injection, schedule: Q04DX003 (ip), vehicle: water) was 98 % of control; the T/C (dose: 24.0 mg/kg/injection, schedule: Q04DX003 (ip), vehicle: water) was 123 % of control. The T/C was 116 % of control (dose: 48.0 mg/kg/injection, schedule: Q04DX003 (ip), vehicle: water) and 98 % of control (dose: 96.0 mg/kg/injection, schedule: Q04DX003 (ip), vehicle: water).
Consider `O=C(CSC(=S)N1CCCCC1)c1ccc([N+](=O)[O-])cc1`, for which the T/C reads like this: (dose: 12.5 mg/kg/injection, schedule: Q01DX009 (ip), vehicle: distilled water + Tween-80) 98 % of control; (dose: 25.0 mg/kg/injection, schedule: Q01DX009 (ip), vehicle: distilled water + Tween-80) 96 % of control; (dose: 50.0 mg/kg/injection, schedule: Q01DX009 (ip), vehicle: distilled water + Tween-80) 90 % of control; (dose: 100.0 mg/kg/injection, schedule: Q01DX009 (ip), vehicle: distilled water + Tween-80) 90 % of control; (dose: 200.0 mg/kg/injection, schedule: Q01DX009 (ip), vehicle: distilled water + Tween-80) 89 % of control.
Turning to `CCOC(=O)C(Cc1ccccc1)C1(C)SCCN1C(=O)OCC` (stereo not drawn), the T/C is, setting by setting: (dose: 25.0 mg/kg/injection, schedule: Q01DX005 (ip), vehicle: saline with Tween-80) 101 % of control; (dose: 50.0 mg/kg/injection, schedule: Q01DX005 (ip), vehicle: saline with Tween-80) 105 % of control; (dose: 100.0 mg/kg/injection, schedule: Q01DX005 (ip), vehicle: saline with Tween-80) 100 % of control; (dose: 200.0 mg/kg/injection, schedule: Q01DX005 (ip), vehicle: saline with Tween-80) 103 % of control.
In the case of `O=C(O)CCCCCCCCCCOc1ccc(Cl)cc1`, the T/C (dose: 50.0 mg/kg/injection, schedule: Q04DX003 (ip), vehicle: Klucel (hydroxypropylcellulose) (HPC)) is 96 % of control; the T/C (dose: 100.0 mg/kg/injection, schedule: Q04DX003 (ip), vehicle: Klucel (hydroxypropylcellulose) (HPC)) is 99 % of control; the T/C (dose: 200.0 mg/kg/injection, schedule: Q04DX003 (ip), vehicle: Klucel (hydroxypropylcellulose) (HPC)) is 105 % of control; the T/C (dose: 400.0 mg/kg/injection, schedule: Q04DX003 (ip), vehicle: Klucel (hydroxypropylcellulose) (HPC)) is 92 % of control.
In the case of `COC(=O)C1(C)C(OC(C)=O)CC2C3C(CC4CC(OC(C)=O)CCC42C)OC(=O)CC31` (stereo not drawn), the T/C by setting is: (dose: 0.25 mg/kg/injection, schedule: Q01DX009 (ip), vehicle: distilled water + Tween-80) 99 % of control; (dose: 0.5 mg/kg/injection, schedule: Q01DX009 (ip), vehicle: distilled water + Tween-80) 101 % of control; (dose: 1.0 mg/kg/injection, schedule: Q01DX009 (ip), vehicle: distilled water + Tween-80) 102 % of control; (dose: 2.0 mg/kg/injection, schedule: Q01DX009 (ip), vehicle: distilled water + Tween-80) 104 % of control; (dose: 4.0 mg/kg/injection, schedule: Q01DX009 (ip), vehicle: distilled water + Tween-80) 100 % of control and 104 % of control; (dose: 8.0 mg/kg/injection, schedule: Q01DX009 (ip), vehicle: distilled water + Tween-80) 106 % of control and 111 % of control. For the same compound, the T/C is 94 % of control (dose: 16.0 mg/kg/injection, schedule: Q01DX009 (ip), vehicle: distilled water + Tween-80); 87 % of control (dose: 32.0 mg/kg/injection, schedule: Q01DX009 (ip), vehicle: distilled water + Tween-80); 100 % of control (dose: 64.0 mg/kg/injection, schedule: Q01DX009 (ip), vehicle: distilled water + Tween-80).
Consider `O=C(N/N=C/C(O)C(O)C(O)C(O)C(=O)O)c1ccncc1` (stereo not drawn), for which the T/C runs as follows: (dose: 50.0 mg/kg/injection, schedule: Q01DX005 (ip), vehicle: saline) 99 % of control; (dose: 100.0 mg/kg/injection, schedule: Q01DX005 (ip), vehicle: saline) 93 % of control; (dose: 200.0 mg/kg/injection, schedule: Q01DX005 (ip), vehicle: saline) 100 % of control.
In the case of `CC(C)CCCC(C)C1CCC2C3CCC4C5Oc6ccccc6N=C5CCC4(C)C3CCC12C` (stereo not drawn), the T/C runs as follows: (dose: 60.0 mg/kg/injection, schedule: Q01DX005 (ip), vehicle: Klucel (hydroxypropylcellulose) (HPC)) 92 % of control; (dose: 120.0 mg/kg/injection, schedule: Q01DX005 (ip), vehicle: Klucel (hydroxypropylcellulose) (HPC)) 97 % of control; (dose: 240.0 mg/kg/injection, schedule: Q01DX005 (ip), vehicle: Klucel (hydroxypropylcellulose) (HPC)) 93 % of control.
In the case of `NS(=O)(=O)c1ccc(C(=O)O)cc1`, the T/C (dose: 25.0 mg/kg/injection, schedule: Q04DX003 (ip), vehicle: saline with Tween-80) is 101 % of control; the T/C (dose: 50.0 mg/kg/injection, schedule: Q04DX003 (ip), vehicle: saline with Tween-80) is 94 % of control; the T/C (dose: 100.0 mg/kg/injection, schedule: Q04DX003 (ip), vehicle: saline with Tween-80) was 100 % of control; the T/C (dose: 200.0 mg/kg/injection, schedule: Q04DX003 (ip), vehicle: saline with Tween-80) is 103 % of control.
With `Nc1nc(N)c2cc(N3CCCC3c3ccc(Cl)cc3)ccc2n1` (stereo not drawn), the T/C by setting is: (dose: 1.56 mg/kg/injection, schedule: Q01DX005 (ip), vehicle: Klucel (hydroxypropylcellulose) (HPC)) 98 % of control; (dose: 1.56 mg/kg/injection, schedule: Q01DX009 (ip), vehicle: Klucel (hydroxypropylcellulose) (HPC)) 100 % of control and 101 % of control; (dose: 3.12 mg/kg/injection, schedule: Q01DX005 (ip), vehicle: Klucel (hydroxypropylcellulose) (HPC)) 98 % of control; (dose: 3.12 mg/kg/injection, schedule: Q01DX009 (ip), vehicle: Klucel (hydroxypropylcellulose) (HPC)) 101 % of control and 118 % of control; (dose: 6.25 mg/kg/injection, schedule: Q01DX005 (ip), vehicle: Klucel (hydroxypropylcellulose) (HPC)) 96 % of control; (dose: 12.5 mg/kg/injection, schedule: Q01DX005 (ip), vehicle: Klucel (hydroxypropylcellulose) (HPC)) 108 % of control.
For the compound `CC(C)(CCC(C)(C)NCCCN)NCCCN`, the T/C was 115 % of control (dose: 3.13 mg/kg/injection, schedule: Q01DX009 (ip), vehicle: water); 112 % of control (dose: 6.25 mg/kg/injection, schedule: Q01DX009 (ip), vehicle: water); 102 % of control (dose: 12.5 mg/kg/injection, schedule: Q01DX009 (ip), vehicle: water); 103 % of control (dose: 25.0 mg/kg/injection, schedule: Q01DX009 (ip), vehicle: water); 97 % of control (dose: 50.0 mg/kg/injection, schedule: Q01DX009 (ip), vehicle: water).
For `O=C(O)C(Cc1ccccc1)N1C(=O)C=CC1=O` (stereo not drawn), the T/C reads like this: (dose: 10.0 mg/kg/injection, schedule: Q01DX009 (ip), vehicle: saline with Tween-80) 112 % of control; (dose: 20.0 mg/kg/injection, schedule: Q01DX009 (ip), vehicle: saline with Tween-80) 107 % of control; (dose: 40.0 mg/kg/injection, schedule: Q01DX009 (ip), vehicle: saline with Tween-80) 104 % of control and 95 % of control; (dose: 50.0 mg/kg/injection, schedule: Q01DX009 (ip), vehicle: Klucel (hydroxypropylcellulose) (HPC)) 89 % of control; (dose: 100.0 mg/kg/injection, schedule: Q01DX009 (ip), vehicle: Klucel (hydroxypropylcellulose) (HPC)) 90 % of control.

These data come from PubChem BioAssay AID330 (DTP/NCI, 2004).
